From ChEMBL document CHEMBL3301562, “MMV Box screening against Plasmodium falciparum protein kinases and aminoacyl tRNA synthetases”

Tests used:
Format in all cases: functional
[1] = target: T1, Putative uncharacterized protein pk7 (Plasmodium falciparum, UniProt O96214); assay: Final concentrations were 1 uM ATP, 2 mM DTT, 20 mM MgCl2, 2 mM MnCl2, 0.01% BSA, and 6 ug/ml PK7, in a buffer of 20 mM Tris-HCl (pH 7.5). The enzyme itself was the only substrate present (since autophosphorylation occurs); 100 uM 1NA-PP1 was used as a control inhibitor. Incubation time was 3 hours.
T1 sequence (O96214 whole entry): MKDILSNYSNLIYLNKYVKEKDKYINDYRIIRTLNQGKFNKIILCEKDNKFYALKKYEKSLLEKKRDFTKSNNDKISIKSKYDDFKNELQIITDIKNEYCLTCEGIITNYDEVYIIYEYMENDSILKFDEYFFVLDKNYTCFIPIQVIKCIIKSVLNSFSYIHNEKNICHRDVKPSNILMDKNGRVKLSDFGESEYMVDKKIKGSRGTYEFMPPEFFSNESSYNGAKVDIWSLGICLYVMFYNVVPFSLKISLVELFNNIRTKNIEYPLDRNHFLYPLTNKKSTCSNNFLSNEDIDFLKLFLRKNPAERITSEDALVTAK

[2] = target: T2, Calcium-dependent protein kinase 4 (Plasmodium falciparum (isolate 3D7), UniProt Q8IBS5); assay: MMV: CDPK4 Protein kinase inhibition assay using recombinant PfCDPK4, syntide2 peptide substrate, ATP and KinaseGlo to measure % inhibition at 1 uM MMV box compound.
T2 sequence (Q8IBS5 whole entry): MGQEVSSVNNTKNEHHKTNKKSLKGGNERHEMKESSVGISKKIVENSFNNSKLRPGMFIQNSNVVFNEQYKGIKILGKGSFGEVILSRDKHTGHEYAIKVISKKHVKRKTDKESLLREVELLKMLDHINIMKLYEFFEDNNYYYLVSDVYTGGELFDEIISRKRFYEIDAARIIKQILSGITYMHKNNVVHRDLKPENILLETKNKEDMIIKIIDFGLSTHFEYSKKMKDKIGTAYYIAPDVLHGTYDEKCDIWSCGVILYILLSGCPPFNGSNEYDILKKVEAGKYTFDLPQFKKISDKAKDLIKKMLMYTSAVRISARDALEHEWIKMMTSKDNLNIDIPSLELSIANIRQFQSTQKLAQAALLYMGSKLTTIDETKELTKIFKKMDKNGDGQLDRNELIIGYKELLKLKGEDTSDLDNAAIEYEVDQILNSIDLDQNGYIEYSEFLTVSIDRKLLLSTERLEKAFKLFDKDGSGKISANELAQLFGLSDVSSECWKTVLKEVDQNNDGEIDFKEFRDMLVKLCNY

[3] = target: T3, Mitogen-activated protein kinase (Plasmodium falciparum, UniProt Q25917); assay: Final concentrations were 1 uM ATP, 0.5 mM DTT, 1 mM MgCl2, 0.5 mg/mL BSA, and 10 ug/ml MAP2 in a buffer of 50 mM HEPES (pH 7.0). 0.5 mg/mL histone III-S served as the substrate (13); 100 uM AMP-PNP, an ATP analog, was used as a control inhibitor. Incubation time was 4 hours.
T3 sequence (Q25917 whole entry): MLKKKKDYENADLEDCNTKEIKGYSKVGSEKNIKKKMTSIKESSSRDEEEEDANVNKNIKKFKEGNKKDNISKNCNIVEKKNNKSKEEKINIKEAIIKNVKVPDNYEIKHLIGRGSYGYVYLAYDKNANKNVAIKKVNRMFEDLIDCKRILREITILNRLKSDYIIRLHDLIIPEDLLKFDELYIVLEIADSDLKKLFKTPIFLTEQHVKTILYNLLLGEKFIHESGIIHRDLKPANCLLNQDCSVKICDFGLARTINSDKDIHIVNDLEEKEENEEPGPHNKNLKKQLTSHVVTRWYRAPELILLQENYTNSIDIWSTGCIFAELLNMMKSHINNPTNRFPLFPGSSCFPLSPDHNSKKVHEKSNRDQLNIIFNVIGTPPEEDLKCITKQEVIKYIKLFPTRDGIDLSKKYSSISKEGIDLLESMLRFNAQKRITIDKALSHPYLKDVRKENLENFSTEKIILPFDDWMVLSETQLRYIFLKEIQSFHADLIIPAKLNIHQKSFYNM

[4] = target: T4, Cdk-related protein kinase 6 (Plasmodium falciparum, UniProt O77239); assay: Final concentrations were 1.5 uM ATP, 5 mM MnCl2, and 15 ug/ml PK6 in a buffer of 100 mM Tris-HCl (pH 7.5). 50 ug/mL MBP was provided as the substrate; 10 uM staurosporine was used as a control inhibitor. Incubation time was 3 hours and 40 minutes.The catalytic activity of each kinase was considered proportional to ATP consumed, as determined from measurements of residual [ATP] with the luciferase-based reagent Kinase-Glo (Promega) following incubation. Luminescence (proportional to residual [ATP]) was measured on the plate readers FLx800 (BioTek Instruments, Winooski, VT, USA) and MicroBeta2.
T4 sequence (O77239 whole entry): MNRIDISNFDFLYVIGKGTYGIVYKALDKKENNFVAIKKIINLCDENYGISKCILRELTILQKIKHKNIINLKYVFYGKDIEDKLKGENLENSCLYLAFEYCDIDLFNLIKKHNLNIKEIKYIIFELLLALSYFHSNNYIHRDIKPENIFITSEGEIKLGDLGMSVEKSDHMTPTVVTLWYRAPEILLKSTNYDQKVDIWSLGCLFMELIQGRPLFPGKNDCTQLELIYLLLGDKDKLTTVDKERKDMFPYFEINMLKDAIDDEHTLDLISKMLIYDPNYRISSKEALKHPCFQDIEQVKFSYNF

[5] = target: Calcium-dependent protein kinase 1 (Plasmodium falciparum, UniProt P62344); assay: MMV: CDPK1 Protein kinase inhibition assay using recombinant PfCDPK1, syntide 2 peptide substrate, ATP and KinaseGlo to measure % inhibition at 1 uM MMV box compound.
Chain of Calcium-dependent protein kinase 1 (P62344 whole entry): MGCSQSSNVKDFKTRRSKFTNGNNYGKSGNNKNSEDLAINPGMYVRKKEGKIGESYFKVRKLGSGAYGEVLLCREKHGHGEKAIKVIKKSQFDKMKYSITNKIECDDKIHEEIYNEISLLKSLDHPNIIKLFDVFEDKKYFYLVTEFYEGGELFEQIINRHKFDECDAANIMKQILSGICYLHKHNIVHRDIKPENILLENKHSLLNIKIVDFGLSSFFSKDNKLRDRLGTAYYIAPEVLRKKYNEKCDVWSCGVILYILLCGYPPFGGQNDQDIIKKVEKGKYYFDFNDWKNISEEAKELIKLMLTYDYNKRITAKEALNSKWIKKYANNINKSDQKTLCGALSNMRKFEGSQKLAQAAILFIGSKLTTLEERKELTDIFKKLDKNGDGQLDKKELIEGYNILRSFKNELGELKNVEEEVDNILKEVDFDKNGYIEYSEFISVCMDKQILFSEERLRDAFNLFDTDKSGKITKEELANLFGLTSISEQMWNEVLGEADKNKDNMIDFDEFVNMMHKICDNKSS

[6] = target: T5, Proline--tRNA ligase (Plasmodium falciparum (isolate 3D7), UniProt Q8I5R7); assay: MMV: ProRS recombinant Plasmodium falciparum Prolyl-tRNA-synthetase, assay with yeast tRNA, ATP, and proline and 3 uM MMV malaria box compound, assay read out with kinase glo as % inhibition.
T5 sequence (Q8I5R7 whole entry): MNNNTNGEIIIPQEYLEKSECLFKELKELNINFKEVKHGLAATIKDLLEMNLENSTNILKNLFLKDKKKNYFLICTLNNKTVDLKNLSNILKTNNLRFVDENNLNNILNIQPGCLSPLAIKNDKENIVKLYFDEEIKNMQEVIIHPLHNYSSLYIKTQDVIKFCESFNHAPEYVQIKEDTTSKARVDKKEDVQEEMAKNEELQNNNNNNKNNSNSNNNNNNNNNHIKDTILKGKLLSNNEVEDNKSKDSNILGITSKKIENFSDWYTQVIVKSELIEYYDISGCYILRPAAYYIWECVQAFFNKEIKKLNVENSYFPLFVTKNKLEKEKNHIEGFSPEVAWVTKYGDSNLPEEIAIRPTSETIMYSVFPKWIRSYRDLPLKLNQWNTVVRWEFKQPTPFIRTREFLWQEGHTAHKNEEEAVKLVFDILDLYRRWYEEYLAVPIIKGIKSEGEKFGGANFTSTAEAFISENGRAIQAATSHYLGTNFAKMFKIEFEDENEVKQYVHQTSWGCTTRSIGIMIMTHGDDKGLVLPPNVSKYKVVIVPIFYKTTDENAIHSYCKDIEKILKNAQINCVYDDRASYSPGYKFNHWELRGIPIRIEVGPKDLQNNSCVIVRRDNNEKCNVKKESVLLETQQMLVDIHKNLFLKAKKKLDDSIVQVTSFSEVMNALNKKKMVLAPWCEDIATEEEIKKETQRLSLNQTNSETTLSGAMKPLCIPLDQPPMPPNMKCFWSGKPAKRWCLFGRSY

[7] = target: Lysine--tRNA ligase (Plasmodium falciparum (isolate 3D7), UniProt Q8IDJ8); assay: MMV: KRS recombinant Plasmodium falciparum Lysyl-tRNA-synthetase, assay with yeast tRNA, ATP, and lysine and 3 uM MMV malaria box compound, assay read out with kinase glo as % inhibition.
Chain of Lysine--tRNA ligase (Q8IDJ8 whole entry): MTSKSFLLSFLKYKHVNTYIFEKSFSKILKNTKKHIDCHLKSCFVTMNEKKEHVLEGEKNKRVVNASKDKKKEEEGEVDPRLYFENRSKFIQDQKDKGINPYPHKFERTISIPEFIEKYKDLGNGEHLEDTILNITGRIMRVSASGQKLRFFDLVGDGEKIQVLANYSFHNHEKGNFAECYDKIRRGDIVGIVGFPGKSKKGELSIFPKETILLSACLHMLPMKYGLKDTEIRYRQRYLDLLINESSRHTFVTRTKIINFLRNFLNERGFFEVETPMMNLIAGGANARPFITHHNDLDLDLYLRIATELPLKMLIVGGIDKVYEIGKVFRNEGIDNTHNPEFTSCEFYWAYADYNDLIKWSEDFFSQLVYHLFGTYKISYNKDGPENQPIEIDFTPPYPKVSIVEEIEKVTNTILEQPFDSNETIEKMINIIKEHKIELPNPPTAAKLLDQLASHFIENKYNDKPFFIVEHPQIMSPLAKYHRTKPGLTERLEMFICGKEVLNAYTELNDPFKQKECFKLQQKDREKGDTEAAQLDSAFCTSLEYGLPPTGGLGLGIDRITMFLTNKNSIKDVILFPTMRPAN

For `COc1ccccc1CNC(=O)C1c2ccccc2C(=O)N(CC(C)C)C1c1cccs1` (configuration not stated), the IC50 [1] was greater than 1000 nM, the IC50 [2] was greater than 1000 nM and the IC50 [3] was greater than 1000 nM. For the same compound, the IC50 [4] was greater than 1000 nM, the IC50 [5] was greater than 1000 nM and the IC50 [6] was greater than 2500 nM. The IC50 [7] was greater than 2500 nM.
Compound `CCN1CCN(c2c(C(=O)c3ccccc3)cnc3cc(OC)c(OC)cc23)CC1` has an IC50 [1] greater than 1000 nM, an IC50 [2] greater than 1000 nM and an IC50 [3] greater than 1000 nM. The IC50 [4] was greater than 1000 nM, the IC50 [5] was greater than 1000 nM and the IC50 [6] was greater than 2500 nM. It also gave an IC50 [7] greater than 2500 nM.
`CCc1c(C)c(=N)c2ccccc2n1C` gave an IC50 [1] greater than 1000 nM, an IC50 [2] greater than 1000 nM and an IC50 [3] greater than 1000 nM. For the same compound, the IC50 [4] was greater than 1000 nM, the IC50 [5] was greater than 1000 nM and the IC50 [6] was greater than 2500 nM. The IC50 [7] was greater than 2500 nM.
For `O=C(CCc1ccco1)NC1CCN(CC2(c3ccc(Cl)cc3)CCC2)CC1`, the IC50 [1] was greater than 1000 nM, the IC50 [2] was greater than 1000 nM and the IC50 [3] was greater than 1000 nM. It also gave an IC50 [4] greater than 1000 nM, an IC50 [5] greater than 1000 nM and an IC50 [6] greater than 2500 nM. It also gave an IC50 [7] greater than 2500 nM.
For `Cc1sc(NC(=O)c2ccccc2)c(C(c2cccs2)N2CCN(c3ccccc3)CC2)c1C` (configuration not stated), the IC50 [1] was greater than 1000 nM, the IC50 [2] was greater than 1000 nM and the IC50 [3] was greater than 1000 nM. It also gave an IC50 [4] greater than 1000 nM, an IC50 [5] greater than 1000 nM and an IC50 [6] greater than 2500 nM. The IC50 [7] was greater than 2500 nM.
`N=c1n(CCN2CCCCC2)c2ccccc2n1CC(=O)c1ccc(Cl)c(Cl)c1` was tested, and the IC50 [1] was greater than 1000 nM, the IC50 [2] was greater than 1000 nM and the IC50 [3] was greater than 1000 nM. For the same compound, the IC50 [4] was greater than 1000 nM, the IC50 [5] was greater than 1000 nM and the IC50 [6] was greater than 2500 nM. It also gave an IC50 [7] greater than 2500 nM.
`CCn1c2c(c(=N)c3c1CCC3)CCCC2` showed an IC50 [1] greater than 1000 nM, an IC50 [2] greater than 1000 nM and an IC50 [3] greater than 1000 nM. For the same compound, the IC50 [4] was greater than 1000 nM, the IC50 [5] was greater than 1000 nM and the IC50 [6] was greater than 2500 nM. The IC50 [7] was greater than 2500 nM.
For `CCOC(=O)C1=C(c2ccccc2)N=c2sc(=Cc3cc(C)n(-c4ccc(F)cc4)c3C)c(=O)n2C1c1cccc(OC)c1OC` (configuration not stated), the IC50 [1] was greater than 1000 nM, the IC50 [2] was greater than 1000 nM and the IC50 [3] was greater than 1000 nM. It also gave an IC50 [4] greater than 1000 nM, an IC50 [5] greater than 1000 nM and an IC50 [6] greater than 2500 nM. The IC50 [7] was greater than 2500 nM.
`COc1ccc(C2N(C)c3ccccc3N2C)cc1` was tested, and the IC50 [1] was greater than 1000 nM, the IC50 [2] was greater than 1000 nM and the IC50 [3] was greater than 1000 nM. For the same compound, the IC50 [4] was greater than 1000 nM, the IC50 [5] was greater than 1000 nM and the IC50 [6] was greater than 2500 nM. It also gave an IC50 [7] greater than 2500 nM.
`COCCN(C(=O)Cc1cccs1)C(C(=O)NCc1ccc(OC)cc1)c1ccc(C(C)C)cc1` (configuration not stated) was tested, and the IC50 [1] was greater than 1000 nM, the IC50 [2] was greater than 1000 nM and the IC50 [3] was greater than 1000 nM. It also gave an IC50 [4] greater than 1000 nM, an IC50 [5] greater than 1000 nM and an IC50 [6] greater than 2500 nM. It also gave an IC50 [7] greater than 2500 nM.
With `CCOC(=O)C1=C(C)N=c2sc(=Cc3ccccc3O)c(=O)n2C1c1ccc(OC)c2ccccc12` (configuration not stated) the IC50 [1] was greater than 1000 nM, the IC50 [2] was greater than 1000 nM and the IC50 [3] was greater than 1000 nM. It also gave an IC50 [4] greater than 1000 nM, an IC50 [5] greater than 1000 nM and an IC50 [6] greater than 2500 nM. It also gave an IC50 [7] greater than 2500 nM.
